In PMC6979384, “Characterization of the plant homeodomain (PHD) reader family for their histone tail interactions” (Epigenetics & Chromatin, 2020):
Entries after “also recorded” stand apart in the source; their conditions may differ. Read-outs that look alike come from different tables or passages of the source.

Columns and labels:
CHD5 (PCC) = experiment: PHD finger domain microarray; format: binding, human
Description: (§1) To define the histone binding preferences of the PHD finger proteome, we expressed and purified 123 annotated human PHD-containing domains as GST-tagged recombinant fusions from E. coli. The recombinant proteins consisted of either PHD fingers in isolation, or as tandem domains if a given PHD finger was located adjacent to another reader domain (e.g., one or more PHD fingers, Tudor, chromo and/or bromodomains) (Additional file 1: Table S1). These GST fusions were printed in duplicate on nitrocellulose-coated microarray slides and probed with biotinylated peptides that represented the N-termini of H3, H4, H2A or H2B (Fig. 1a and Additional file 2: Figure S1). As the majority of PHD readers thus far characterized are H3K4me0/3 readers, we included additional peptides (H3K4 as either mono-, di-, or trimethylated) to further determine any H3K4 methyl preference (Additional file 2: Figure S2 and Fig. 1b). As a control, we also probed these microarrays with an α-Tubulin peptide (a.a. 30–50) that would not be predicted to interact with PHD fingers (Additional file 2: Figure S1). […] We also cannot exclude the possibility that some PHD fingers might not be functionally active on the microarrays (perhaps due to misfolding or the lack of an important adjacent region).
(§2) The protein domain microarray was designed to include 123 GST-tagged PHD-domain containing recombinant proteins. Protein domain microarray development and probing was as previously. Briefly, recombinant proteins were synthesized and cloned into pGEX-4T-1 vector by Biomatik Corporation. These GST-PHD readers were subsequently expressed, purified, and spotted in duplicate onto nitrocellulose-coated glass slides (Oncyte Avid slides, Grace Bio-Labs) using a pin arrayer (Aushon 2470, Aushon). For probing, microarray slides were blocked with 3% milk, 3% bovine serum albumin, 0.1% Tween 20 in PBS. Biotinylated peptides were pre-labeled with streptavidin-Cy3 fluorophore (GE Healthcare) and incubated with the blocked array slides. Slides were then washed with PBST and allowed to air dry. Fluorescent interactions were visualized using a GenePix 4200A Microarray Scanner (Molecular Devices).

KDM5B (PHD3) = experiment: PHD finger domain microarray; format: binding, human
Description: as §1, §2

PHRF1 (RP) [1] = experiment: PHD finger domain microarray; format: binding, human
Description: as §1, §2

CHD4 (PPCC) = experiment: dCypher AlphaScreen Phase B (full peptide screen); format: binding, human; conditions: reader 0.65 nM, 100 nM peptide, 23 °C, n = 2
Description: (§3) X-axes are log(protein concentration (M)) at constant peptide concentration (100 nM); Y-axes are AlphaScreen counts, representing relative strength of binding (n = 2; error bars are S.D.). i Heat map represents relative binding to H3 N-terminal peptides (left) by PHD-containing GST-tagged proteins (top) using the dCypher AlphaScreen platform. Protein concentrations can be found in Additional file 5: Table S4. Binding strength is indicated by color gradient from green to yellow (stronger to weaker). […] Alpha counts (n = 2) were normalized individually for each protein to the highest signal for each respective assay. For full dCypher peptide screen data, see Additional file 4: Table S3
(§4) Once the optimal protein concentration ranges for each of the eight readers were determined, we conducted the full dCypher peptide screen (293 histone peptides) (Fig. 3i; Additional file 4: Table S3).
(§5) The dCypher peptide screen assay was performed as previously described. Briefly, 5 μL of GST-tagged reader domains (optimal protein concentration for library screening determined by initial binding curves to candidate peptides) were incubated with 5 μL of 400 nM (100 nM Final) biotinylated histone peptides (EpiCypher) for 30 min at 23 °C in 1× AlphaLISA Epigenetics buffer + epigenetics buffer supplement (PerkinElmer, AL1008) in a 384-well plate. A 10 μL mix of 5 µg/mL (2.5 μg/mL final) glutathione Acceptor beads (PerkinElmer, AL109M) and 10 μg/mL (5 μg/mL final) streptavidin Donor beads (PerkinElmer, 6760002) was prepared in 1× [Epigenetics buffer + supplement] and added to each well. Plates were incubated at 23 °C in subdued lighting for 60 min and AlphaLISA signal measured on a PerkinElmer 2104 EnVision (680 nm laser excitation, 570 nm emission filter ± 50 nm bandwidth).
(§6) Supplementary file 13072_2020_328_MOESM4_ESM.xlsx: Additional file 4: Table S3. dCypher Results. Excel Tab Peptide Phase A is a compiled set of binding data: chromatin reader titration vs. several peptide targets. Data is presented as raw Alpha counts in duplicates at each concentration tested. Excel Tab Peptide Phase B is a compiled set of binding data: chromatin reader at optimized concentrations vs. entire 293 peptide library. Data is presented as the average and standard deviation of duplicates. […] Key: red = strong binding; blue = weak/no binding.

PHRF1 (RP) [2] = experiment: dCypher AlphaScreen Phase B (full peptide screen); format: binding, human; conditions: reader 15 nM, 100 nM peptide, 23 °C, n = 2
Description: as §3, §4, §5, §6

DIDO1 = experiment: dCypher AlphaScreen Phase B (full peptide screen); format: binding, human; conditions: reader 0.1 nM, 100 nM peptide, 23 °C, n = 2
Description: as §3, §4, §5, §6

MLL5 = experiment: dCypher AlphaScreen Phase B (full peptide screen); format: binding, human; conditions: reader 0.02 nM, 100 nM peptide, 23 °C, n = 2
Description: as §3, §4, §5, §6

MLL5 PHD finger = experiment: PHD finger domain microarray; format: binding, human
Description: as §1, §2

PHD finger of MLL5 = conditions: cited from earlier work
Description: Our findings from domain and peptide microarray confirm the reported binding preferences of many PHD proteins such as those of the ING and PHF families. […] We surmise that the basis of this differenc ...

KDM7A = experiment: dCypher AlphaScreen Phase B (full peptide screen); format: binding, human; conditions: reader 0.15 nM, 100 nM peptide, 23 °C, n = 2
Description: as §3, §4, §5, §6

DPF2 (PPC2W2) = experiment: dCypher AlphaScreen Phase B (full peptide screen); format: binding, human; conditions: reader 0.1 nM, 100 nM peptide, 23 °C, n = 2
Description: as §3, §4, §5, §6

H3K4me0 readers = experiment: dCypher AlphaScreen Phase B (full peptide screen), H3K4me0 readers together; format: binding, human; conditions: 100 nM peptide, 23 °C, n = 2
Description: Fig. 3 dCypher histone peptide-binding assays define the PTM recognition preference of PHD proteins with high sensitivity. a–h Binding curves to determine optimal reader protein concentration for full peptide library screening on the dCypher® AlphaScreen® platform (see “Methods”). X-axes are log(protein concentration (M)) at constant peptide concentration (100 nM); Y-axes are AlphaScreen counts, representing relative strength of binding (n = 2; error bars are S.D.). i Heat map represents relative binding to H3 N-terminal peptides (left) by PHD-containing GST-tagged proteins (top) using the dCypher AlphaScreen platform. Protein concentrations can be found in Additional file 5: Table S4. […]
as §4
The dCypher peptide screen assay was performed as previously described. Briefly, 5 μL of GST-tagged reader domains (optimal protein concentration for library screening determined by initial binding curves to candidate peptides) were incubated with 5 μL of 400 nM (100 nM Final) biotinylated histone peptides (EpiCypher) for 30 min at 23 °C in 1× AlphaLISA Epigenetics buffer + epigenetics buffer supplement (PerkinElmer, AL1008) in a 384-well plate. […]

Row | binding preference (CHD5 (PCC)) | binding (PHRF1 (RP) [2]) | binding preference (MLL5 PHD finger) | Substance | binding preference (KDM5B (PHD3)) | binding (CHD4 (PPCC)) | reported binding (PHD finger of MLL5) | also measured
1 | no preference | more limited interactions | – | H3 (1-20): unmodified H3 N-terminal peptide (1–20) | no preference | clearer specificity for the H3K4me0 peptide over the methylated species | – | binding preference (PHRF1 (RP) [1]; listed as H3K4me0): no preference on the domain array; binding preference (PHRF1 (RP) [1]; listed as unmodified H3 tail): readers of the unmodified H3 tail
2 | – | – | – | H3K4me1: H3 1-20 [Peptide H3K4me1] | – | – | – | binding (DIDO1): also identified interaction of these domains with the H3K4me1 peptide; binding (MLL5): also identified interaction of these domains with the H3K4me1 peptide
3 | – | – | strong preference | H3K4me2: H3 1-20 [Peptide H3K4me2] | – | – | discrepancies in whether the PHD finger of MLL5 is a H3K4me3 or H3K4me2 reader | –
4 | no preference | – | strong preference | H3K4me3: H3 1-20 [Peptide H3K4me3] | consistent with their current classification as H3K4me3 binders; also recorded: no preference | – | discrepancies in whether the PHD finger of MLL5 is a H3K4me3 or H3K4me2 reader | binding preference (PHRF1 (RP) [1]): no preference; binding (KDM7A): reader of H3K4me3
5 | – | more limited interactions | – | H3K9me3: H3 1-20 [Peptide H3K9me3] | – | ability to bind to the peptides containing H3K9me3 | – | binding (DPF2 (PPC2W2)): ability to bind to the peptides containing H3K9me3
6 | – | – | – | H3S10p: H3 1-20 [Peptide H3S10p] | – | – | – | loss of binding on S10 phosphorylation (H3K4me0 readers): this phenomenon is also observed
